{"source": "paper PMC3364120", "about": "(British Journal of Cancer, 2012)", "key": {"[1]": {"biological_target": "T1, OCT-1 (Homo sapiens, UniProt O15245)", "T1 sequence (O15245 1-554)": "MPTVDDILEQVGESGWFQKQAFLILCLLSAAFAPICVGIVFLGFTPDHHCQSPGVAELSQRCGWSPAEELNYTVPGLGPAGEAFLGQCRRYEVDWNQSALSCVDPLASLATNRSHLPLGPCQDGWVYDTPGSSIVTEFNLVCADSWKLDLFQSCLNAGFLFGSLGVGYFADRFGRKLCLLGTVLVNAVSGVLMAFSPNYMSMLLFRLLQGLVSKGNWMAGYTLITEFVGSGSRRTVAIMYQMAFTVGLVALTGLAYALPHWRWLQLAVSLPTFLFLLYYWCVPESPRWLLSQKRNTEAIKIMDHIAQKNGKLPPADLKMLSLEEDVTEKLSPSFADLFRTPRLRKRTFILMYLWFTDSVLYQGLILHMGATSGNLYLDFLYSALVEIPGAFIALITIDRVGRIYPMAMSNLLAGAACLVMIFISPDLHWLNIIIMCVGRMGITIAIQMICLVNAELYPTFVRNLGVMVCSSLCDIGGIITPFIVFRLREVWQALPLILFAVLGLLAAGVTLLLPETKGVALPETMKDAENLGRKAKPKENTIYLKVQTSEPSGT", "assay": "OCT-1 activity", "format": "cell-based", "conditions": "K562; for change in OA / imatinib uptake via OCT-1: NSAID at concentration of Supplementary Table 1, 2 h"}, "[2]": {"biological_target": "T1, OCT-1", "assay": "OCT-1 activity", "format": "cell-based", "conditions": "KU812"}, "[3]": {"system": "KU812 cells", "assay": "Trypan blue exclusion assay, viable cell number, KU812", "format": "cell-based, human", "conditions": "for number of viable cells: 72 hours"}, "[4]": {"system": "OCT-1 mRNA", "assay": "RQ-PCR for OCT-1 mRNA levels, KU812", "format": "cell-based, human", "conditions": "2-hour incubation (data not shown)"}, "[5]": {"biological_target": "T1, OCT-1", "assay": "OCT-1 activity", "format": "cell-based", "conditions": "MNCs from normal individuals"}, "[6]": {"system": "hOCT-1", "conditions": "0.5 mM NSAID; transfected S2 cells expressing hOCT-1; ref Khamdang et al, 2002; cited from earlier work"}, "[7]": {"conditions": "ref Siu et al, 2000; Juhlin et al, 2004; Bramlage and Goldis, 2008; cited from earlier work"}, "[8]": {"system": "OCT-1 mRNA", "assay": "RQ-PCR for OCT-1 mRNA levels, K562", "format": "cell-based, human", "conditions": "2-hour incubation (data not shown)"}, "[9]": {"biological_target": "T1, OCT-1", "assay": "OCT-1 activity", "format": "cell-based"}, "[10]": {"system": "K562 cells", "assay": "Trypan blue exclusion assay, viable cell number, K562", "format": "cell-based, human", "conditions": "for number of viable cells: 72 hours"}, "[11]": {"system": "chronic myeloid leukaemia", "conditions": "7-year update of IRIS; ref Hughes et al, 2010; cited from earlier work"}, "[12]": {"system": "chronic myeloid leukaemia", "conditions": "imatinib 600 mg per day, ref White et al, 2007b, cited from earlier work"}}, "note": "Like-named read-outs stand apart in the source and are kept apart here."}
{"smiles": "Cc1ccc(-c2cc(C(F)(F)F)nn2-c2ccc(S(N)(=O)=O)cc2)cc1", "note": "[celecoxib]", "values": [{"measurement": "change in OA / imatinib uptake via OCT-1", "setting": "[1]", "result": "no significant impact"}, {"measurement": "change in imatinib uptake via OCT-1", "setting": "[2]", "result": "no significant impact"}]}
{"smiles": "O=C(O)Cc1ccccc1Nc1c(Cl)cccc1Cl", "note": "[diclofenac]", "values": [{"measurement": "number of viable cells", "setting": "[3]; 10 μM diclofenac + 0.05 μM imatinib", "result": "5.40±0.34 × 10^5 ml^−1"}, {"measurement": "change in cell viability", "setting": "[3]; diclofenac alone, no imatinib", "result": "no significant change"}, {"measurement": "change in level of OCT-1 mRNA", "setting": "[4]", "result": "no significant change"}, {"measurement": "change in OA", "setting": "[5]; n=10, diclofenac (data not shown)", "result": "did not result in a significant change"}, {"measurement": "effect on OCT-1-mediated TEA uptake", "setting": "[6]", "result": "significantly inhibit"}, {"measurement": "clinically achievable total plasma concentration", "setting": "[7]", "result": 10, "unit": "µM"}, {"measurement": "change in level of OCT-1 mRNA", "setting": "[8]", "result": "no significant change"}, {"measurement": "cases moved from Q1 to a higher OA quartile group", "setting": "[9]; 15 of 29 Q1 cases, 10 μM diclofenac", "result": 51.7, "unit": "%"}, {"measurement": "percentage of Q1 patients' samples in which OA was increased", "setting": "[9]; CML MNCs with basal OA <4 ng per 200 000 cells (Q1), n=29, 10 μM diclofenac", "result": 93, "unit": "%"}, {"measurement": "median OA in the presence of diclofenac", "setting": "[9]; patients with basal OA >4 ng per 200 000 cells, n=21, 10 μM diclofenac, 5.49 without, not significant (P=0.714)", "result": 5.92, "unit": "ng per 200 000cells"}, {"measurement": "number of viable cells", "setting": "[10]; 10 μM diclofenac + […] imatinib", "result": "7.82±0.56 × 10^5 ml^−1"}, {"measurement": "change in cell viability", "setting": "[10]; diclofenac alone, no imatinib", "result": "no significant change"}]}
{"smiles": "CC(C)Cc1ccc(C(C)C(=O)O)cc1", "note": "(centres unmarked) [ibuprofen]", "values": [{"measurement": "number of viable cells", "setting": "[3]; 145 μM ibuprofen + 0.1 μM imatinib", "result": "7.23±0.78 × 10^5 ml^−1"}, {"measurement": "change in level of OCT-1 mRNA", "setting": "[4]", "result": "no significant change"}, {"measurement": "decrease in OA", "setting": "[5]; n=6, ibuprofen", "result": 50, "unit": "%"}, {"measurement": "range of OA post treatment", "setting": "[5]; n=6, ibuprofen", "result": "1.41–2.82 ng per 200 000 cells"}, {"measurement": "OA post treatment", "setting": "[5]; n=6, ibuprofen, 3.70±0.45 before", "result": "1.83±0.26", "unit": "ng per 200 000 cells"}, {"measurement": "OA, % of vehicle control", "setting": "[1]; 145 μM ibuprofen, 2 h", "result": 48, "unit": "%"}, {"measurement": "effect on OCT-1-mediated TEA uptake", "setting": "[6]", "result": "significantly inhibit"}, {"measurement": "change in level of OCT-1 mRNA", "setting": "[8]", "result": "no significant change"}, {"measurement": "reduction in OA", "setting": "[9]; CP-CML MNCs, 12 cases, 145 μM ibuprofen", "result": 41, "unit": "%"}, {"measurement": "range of OA after treatment", "setting": "[9]; CP-CML MNCs, n=12, 145 μM ibuprofen", "result": "1.53–7.85 ng per 200 000 cells"}, {"measurement": "average OA after treatment", "setting": "[9]; CP-CML MNCs, n=12, 145 μM ibuprofen, 7.53±0.82 before", "result": "4.30±0.52", "unit": "ng per 200 000 cells"}, {"measurement": "number of viable cells", "setting": "[10]; 145 μM ibuprofen + 0.5 μM imatinib", "result": "8.16±1.01 × 10^5 ml^−1"}, {"measurement": "OA, % of vehicle control", "setting": "[2]; 145 μM ibuprofen, 2 h", "result": 59, "unit": "%"}]}
{"smiles": "Cc1ccc(NC(=O)c2ccc(CN3CCN(C)CC3)cc2)cc1Nc1nccc(-c2cccnc2)n1", "note": "[imatinib]", "values": [{"measurement": "overall event-free survival", "setting": "[11]", "result": 81, "unit": "%"}, {"measurement": "transformation-free survival (to accelerated phase/blast crisis)", "setting": "[11]", "result": 93, "unit": "%"}, {"measurement": "number of viable cells", "setting": "[3]; 0.05 μM imatinib alone", "result": "8.40±0.74 × 10^5 ml^−1"}, {"measurement": "number of viable cells", "setting": "[3]; 0.1 μM imatinib alone", "result": "4.97±0.47 × 10^5 ml^−1"}, {"measurement": "percentage of patients achieving major molecular response (MMR) by 24 months", "setting": "[12]; patients with high OA", "result": 85, "unit": "%"}, {"measurement": "percentage of patients achieving major molecular response (MMR) by 24 months", "setting": "[12]; patients with low OA", "result": 45, "unit": "%"}, {"measurement": "number of viable cells", "setting": "[10]; 0.5 μM imatinib alone", "result": "4.88±0.96 × 10^5 ml^−1"}]}
{"smiles": "COc1ccc2c(c1)c(CC(=O)O)c(C)n2C(=O)c1ccc(Cl)cc1", "note": "[indomethacin]", "values": [{"measurement": "effect on OCT-1-mediated TEA uptake", "setting": "[6]", "result": "significantly inhibit"}]}
{"smiles": "CS(=O)(=O)c1ccc(C2=C(c3ccccc3)C(=O)OC2)cc1", "note": "[rofecoxib]", "values": [{"measurement": "change in OA / imatinib uptake via OCT-1", "setting": "[1]", "result": "no significant impact"}, {"measurement": "change in imatinib uptake via OCT-1", "setting": "[2]", "result": "no significant impact"}]}
{"smiles": "CC1=C(CC(=O)O)c2cc(F)ccc2/C1=C\\c1ccc([S+](C)[O-])cc1", "note": "(centres unmarked) [sulindac]", "values": [{"measurement": "effect on OCT-1-mediated TEA uptake", "setting": "[6]", "result": "significantly inhibit"}]}
